Assay results: paper PMC11163988, “Cloning, expression, and purification of an α-carbonic anhydrase from Toxoplasma gondii to unveil its kinetic parameters and anion inhibition profile” (Journal of Enzyme Inhibition and Medicinal Chemistry, 2024)

molecular target: Tg_CA (Toxoplasma gondii α-CA) (Toxoplasma gondii, UniProt S8F479); test: biochemical; assay type: biochemical; conditions: not given
Sequence (S8F479 486-829 limits assumed): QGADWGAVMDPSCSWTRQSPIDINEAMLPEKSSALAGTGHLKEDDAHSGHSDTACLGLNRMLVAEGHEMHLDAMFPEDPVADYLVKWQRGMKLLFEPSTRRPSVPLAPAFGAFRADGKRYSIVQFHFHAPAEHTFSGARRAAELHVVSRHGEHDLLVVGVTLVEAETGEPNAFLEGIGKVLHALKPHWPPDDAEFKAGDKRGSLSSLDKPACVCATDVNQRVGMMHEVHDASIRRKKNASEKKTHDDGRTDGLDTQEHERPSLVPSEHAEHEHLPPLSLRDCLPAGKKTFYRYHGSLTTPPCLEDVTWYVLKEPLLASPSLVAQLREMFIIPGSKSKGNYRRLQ

With `OB(O)c1ccccc1` [Ph-B(OH)2, phenylboronic acid] the Ki was 5.1 mM.

same assay, conditions: pH 7.5; read-out: KI (mM) Tg_CAα

Going from `O=S(=O)(O)NS(=O)(=O)O` [NH(SO3)2^2–, iminodisulfonate] to `O=S(=O)(O)OOS(=O)(=O)O` [S2O8^2–, peroxydisulfate], the Ki rises from 8.5 mM to 26.6 mM (3.1-fold). The first binds more tightly here.

`O=S(=O)(O)C(F)(F)F` [CF3SO3^–, triflate] and `O=S(=O)(O)O` [SO4^2–, sulphate] are within 1.5-fold of each other in Ki: 7.1 mM for the first, 6 mM for the second.

`[O]=[Re](=[O])(=[O])[OH]` [ReO4^–, perrhenate] and `O=[Te](=O)(O)O` [TeO4^2–, tellurate] are within 1.5-fold of each other in Ki: 3.4 mM for the first, 2.5 mM for the second.

`O=NO` [NO2^–, nitrite] and `O=S(O)O` [HSO3^–, bisulphite] are within 1.5-fold of each other in Ki: 6.4 mM for the first, 9.1 mM for the second.

Going from `S=C(S)S` [CS3^2–, trithiocarbonate] to `CCN(CC)C(=S)S` [Et2NCS2^–, N,N-diethyldithiocarbamate], the Ki falls from 4.8 mM to 3.1 mM (1.5-fold).

Compared with `S` [HS^–, hydrogensulfide], `NS(N)(=O)=O` [H2NSO2NH2, sulfamide] is 50-fold lower in Ki: 45.7 mM for the first, 0.92 mM for the second.

`Cl` [Cl^–, chloride] and `F` [F^–] cannot be ordered by Ki: greater than 100 mM for the first, greater than 100 mM for the second.

First: O=[N+]([O-])O [NO3^–, nitrate]
Second: O=C(O)O [CO3^2–, carbonate]
The Ki of the first is 12-fold lower: 8.5 mM for the first, 98.2 mM for the second. The first binds more tightly here.

First: OB1OB2OB(O)OB(O1)O2 [B4O7^2–, tetraborate]
Second: [O]=[V]([OH])([OH])[O][V](=[O])([OH])[OH] [V2O7^4–, divanadate]
The Ki of the first is 1.6-fold higher: 63.9 mM for the first, 39.8 mM for the second.

First: [O-][Cl+3]([O-])([O-])O [ClO4^–, perchlorate]
Second: N#CO [CNO^–, cyanate]
The Ki of the first is 1.6-fold higher: 77.8 mM for the first, 49.6 mM for the second. The second binds more tightly here.

Compared with `F[P-](F)(F)(F)(F)F` [PF6^–, haxafluorophosphate], `F[B-](F)(F)F` [BF4^–, tetrafluoroborate] is 13-fold higher in Ki: 1.9 mM for the first, 25 mM for the second. The first binds more tightly here.

First: Br [Br^–]
Second: O=P(O)(O)OP(=O)(O)O [P2O7^4–, diphosphate]
The Ki of the first is higher: greater than 100 mM for the first, 35.7 mM for the second.

Going from `NS(=O)(=O)O` [H2NSO3H, sulphamic acid] to `O=C(O)O` [HCO3^–, bicarbonate], the Ki rises from 0.68 mM to greater than 100 mM.

First: I [I^–]
Second: [O]=[Ru](=[O])(=[O])=[O] [RuO4^–, perruthenate]
The Ki of the first is higher: greater than 100 mM for the first, 2.3 mM for the second.

Going from `N#C[SeH]` [SeCN^–, selenocyanate] to `N#CS` [SCN^–, thiocyanate], the Ki falls from greater than 100 mM to 31.9 mM. The second binds more tightly here.

`[N-]=[N+]=[N-]` [N3^–, azide] was tested, and the Ki was greater than 100 mM.

molecular target: hCA II (Homo sapiens, UniProt P00918); test: stopped-flow CO2 hydrase assay, hCA II; assay type: biochemical; conditions: 20 mM Hepes pH 7.5, 20 mM NaClO4, mean from 3 assays

`F[P-](F)(F)(F)(F)F` [PF6^–, haxafluorophosphate] showed a Ki greater than 100 mM.
